From patent EP0584223B1, “NOVEL IMMUNOSUPPRESSIVE COMPOUNDS” (VERTEX PHARMACEUTICALS INCORPORATED, priority 1991, dated 1992)

Experiments:
[1] = test system: human peripheral blood lymphocytes (PBC); assay: Mitogenesis assay, PMA plus ionomycin stimulated proliferation; format: cell-based; conditions: Lymphocyte, read-out: PMA
Excerpt: (§4) Fresh peripheral blood lymphocytes (PBLs) from LeukoPak cells or whole blood from random normal blood donors (tested HIV-negative and hepatitis negative) are isolated and separated by density centrifugation over Histopaque 1077 (Sigma Chemical Co., St. Louis, MO). […] The human allogeneic B cell lines used for activation of the fresh PBLs are EBV-transformed lymphocytes from normal healthy adult donors with two completely different HLA haplotypes. All cell lines were routinely tested for the presence of Mycoplasma contamination using the Gibco Mycotect test kit and are Mycoplasma-free. Culture medium consists of RPMI 1640 (Gibco, Grand Island, NY) containing penicillin (50 U/ml) and streptomycin (50 µg/ml), L-glutamine 2 mM, 2 mercaptoethanol (5 x 10^-5), 10% heat-inactivated FCS and 10 mM HEPES.

[2] = test system: CTLL-20 murine T cell line; assay: IL-2 microassay, IL-2 dependent CTLL proliferation; format: cell-based; conditions: Mus musculus; inhibition of proliferation of cytotoxic T cells stimulated by IL-2; read-out: CTLL
Excerpt: as §4

[3] = test system: human peripheral blood lymphocytes (PBC); assay: Mitogenesis assay, OKT3 stimulated proliferation; format: cell-based; conditions: Lymphocyte, OKT3 (10^-4 dilution final), inhibition of proliferation, 3H-thymidine, read-out: OKT3
Excerpt: as §4

FKBP = FKBP (Homo sapiens, UniProt P62942); assay: Inhibition of FKBP PPIase (rotamase) activity, chymotrypsin-coupled assay; format: biochemical; conditions: apparent Ki
Excerpt: The inhibition of the PPIase (rotamase) enzyme activity of the FKBP (apparent "Ki" values) can also be measured according to the methods described by either Harding, M.W. et al., Nature 341:758-760 (1989) or Siekierka, J.J. et al., Nature 341:755-757 (1989). The cis-trans isomerization of the […] peptide bond in a model substrate, N-succinyl-Ala-Ala-Pro-Phe-p-nitroanilide, is monitored spectrophotometrically in a coupled assay with chymotrypsin, which releases 4-nitroanilide from the trans form of the substrate. Fischer, G. et al., Nature 337:476-478 (1989). The inhibitory effect of the addition of different concentrations of inhibitor on the extent of the reaction is determined, and analysis of the change in first order rate constant as a function of inhibitor concentration yields an estimate of the apparent Ki value.

[4] = test system: PBLs stimulated with JVM human viral-transformed B lymphoblastoid cell line; assay: MLR bioassay, PBLs stimulated with JVM cells; format: cell-based; conditions: mixed lymphocyte reaction, JVM stimulator cells, inhibition of proliferation, read-out: JVM
Excerpt: (§1) Fresh peripheral blood lymphocytes (PBLs) from LeukoPak cells or whole blood from random normal blood donors (tested HIV-negative and hepatitis negative) are isolated and separated by density centrifugation over Histopaque 1077 (Sigma Chemical Co., St. Louis, MO). The murine CTLL cytotoxic T cell line and the human Jurkat T cell line are from ATCC (CTLL-2 ATCC TIB214, JURKAT CLONE E6-1 ATCC TIBl52). The human allogeneic B cell lines used for activation of the fresh PBLs are EBV-transformed lymphocytes from normal healthy adult donors with two completely different HLA haplotypes. All cell lines were routinely tested for the presence of Mycoplasma contamination using the Gibco Mycotect test kit and are Mycoplasma-free. Culture medium consists of RPMI 1640 (Gibco, Grand Island, NY) containing penicillin (50 U/ml) and streptomycin (50 µg/ml), L-glutamine 2 mM, 2 mercaptoethanol (5 x 10^-5), 10% heat-inactivated FCS and 10 mM HEPES.
(§2) All chemical stocks were dissolved in DMSO.
(§3) Antigen activated proliferation of PBLs in a primary mixed lymphocyte reaction was assessed in the presence or absence of different concentrations of tested compounds and control drugs. 5 x 10^4 fresh PBLs were stimulated with 5 x 10^3 of Mitomycin C treated-allogeneic EBV-transformed […] cells, LB and JVM, in a final volume of 200 µl per well in 96-well round-bottomed plates (Mishell, B.B. and S.M. Shiigi, Selected Methods in Cellular Immunology W.H. Freeman and Co., San Francisco, CA (1980); Nelson, P.A. et al., Transplantation 50:286 (1990)). Cultures were pulsed on day 6, harvested 24 h later and counted as in previous section.

[5] = test system: PBLs stimulated with LB human viral-transformed B lymphoblastoid cell line; assay: MLR bioassay, PBLs stimulated with LB cells; format: cell-based; conditions: mixed lymphocyte reaction, LB stimulator cells, inhibition of proliferation, read-out: LB
Excerpt: as §1, §2, §3

Chain of FKBP (P62942 whole entry): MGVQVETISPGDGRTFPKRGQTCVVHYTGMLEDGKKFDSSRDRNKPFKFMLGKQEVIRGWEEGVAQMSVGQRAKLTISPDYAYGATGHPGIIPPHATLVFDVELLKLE

| SMILES | IC50 ([1]; 3 h) [µM] | IC50 [2] [µM] | IC50 [3] [µM] | Ki (FKBP) [µM] | IC50 [4] [µM] | IC50 [5] [µM] | IC50 [1] [µM] |
| --- | --- | --- | --- | --- | --- | --- | --- |
| COc1cc(C(=O)C(=O)N2CCCC[C@H]2C(=O)OC(CCCc2ccccc2)c2cccc(Oc3ccccc3)c2)cc(OC)c1OC (mixture of isomers) [Compound 4, (R and S)-1-(3-Phenoxy)phenyl-4-phenyl-1-butyl (S)-N-(3,4,5-trimethoxyphenylglyoxyl)pipecolate] | > 10 | > 10 | > 10 | 0.22 | > 10 | > 10 | – |
| COc1cc(C(=O)C(=O)N2CCCC[C@H]2C(=O)OC(CCCc2ccccc2)CCc2cccnc2)cc(OC)c1OC (mixture of isomers) [Compound 7, (R and S)-6-Phenyl-1-(3-pyridyl)-3-hexyl (S)-N-(3,4,5-trimethoxyphenylglyoxyl)pipecolate] | 2 | 2 | 2 | – | 5 | 5 | – |
| COc1cc(C(=O)C(=O)N2CCCC[C@H]2C(=O)OC(CCCc2ccccc2)CCCc2cccnc2)cc(OC)c1OC (mixture of isomers) [Compound 9, (R and S)-1-Phenyl-7-(3-pyridyl)-4-heptyl (S)-N-(3,4,5-trimethoxyphenylglyoxyl)pipecolate] | 1.8 | 2.5 | 1.2 | – | 6 | 6 | – |
| COc1cc(C(=O)C(=O)N2CCCC[C@H]2C(=O)OC(CCCc2c[nH]c3ccccc23)Cc2ccccc2)cc(OC)c1OC (mixture of isomers) [Compound 11, (R and S)-5-(3-indolyl)-1-phenyl-2-pentyl (S)-N-(3,4,5-trimethoxyphenylglyoxyl)pipecolate] | 2.7 | 10 | 2 | 0.024 | 6.5 | 3.5 | – |
| COc1cc(C(=O)C(=O)N2CCCC[C@H]2C(=O)OCC(CCc2ccccc2)Cc2ccccc2)cc(OC)c1OC (mixture of isomers) [Compound 16, (R and S)-2-Benzyl-4-phenyl-1-butyl (S)-N-(3,4,5-trimethoxyphenylglyoxyl)pipecolate] | 5 | 6 | 7 | 0.057 | > 10 | 9 | – |
| CC(C)(C)C(=O)C(=O)N1CCCC[C@H]1C(=O)OC(CCCc1ccccc1)CCCc1ccccn1 (mixture of isomers) [Compound 21, (R and S)-1-Phenyl-7-(2-pyridyl)-4-heptyl (S)-N-(tert-butylglyoxyl)-pipecolate] | 7 | 4 | 3 | 0.036 | 7 | 6 | – |
| COc1cc(C(=O)C(=O)N2CCCC[C@H]2C(=O)OC(CCCc2ccccc2)CCCc2ccc[n+]([O-])c2)cc(OC)c1OC (mixture of isomers) [Compound 22, (R and S)-1-Phenyl-7-(3-pyridyl)-4-heptyl (S)-N-(3,4,5-trimethoxyphenylglyoxyl)pipecolate N-oxide] | – | 2.3 | 1.6 | – | 2.5 | 2.2 | 1.5 |
| COc1cc(C(=O)C(=O)N2CCC[C@H]2C(=O)OC(CCCc2ccccc2)CCCc2ccccn2)cc(OC)c1OC (stereo partly shown) [Compound 2] | 3.5 | 4 | 1.5 | 0.095 | 7 | 8 | – |
| COc1cc(C(=O)C(=O)N2CCCC[C@H]2C(=O)OC(CCCc2ccccc2)CCCc2ccccc2)cc(OC)c1OC [Compound 3, (S)-1,7-Diphenyl-4-heptanyl N-(3,4,5-trimethoxyphenylglyoxyl)pipecolate] | > 8 | 8 | 2.25 | – | 8.5 | 10 | – |
| COc1cc(C(=O)C(=O)N2CCCC[C@H]2C(=O)OC(CCCc2ccccc2)Cc2ccccc2)cc(OC)c1OC (stereo partly shown) [Compound 10] | 5.5 | 6 | 4 | 0.032 | 8 | 5.5 | – |
| COc1cc(C(=O)C(=O)N2CCCC[C@H]2C(=O)OC(CCCc2ccccc2)CCc2ccccc2)cc(OC)c1OC (stereo partly shown) [Compound 12] | 7 | 8.1 | 5 | 0.083 | 10 | 10 | – |
| COc1ccc(CCC(CCCc2ccccc2)OC(=O)[C@@H]2CCCCN2C(=O)C(=O)c2ccccc2)cc1 (stereo partly shown) [Compound 14] | > 10 | > 10 | > 10 | 0.27 | > 10 | > 10 | – |
| COc1cc(C(=O)C(=O)N2CCCC[C@H]2C(=O)OC(CCCc2ccccc2)CCCn2cnc3ccccc32)cc(OC)c1OC (stereo partly shown) [Compound 15] | – | 5 | 3 | – | 8 | 6 | 3 |
| O=C(C(=O)N1CCCC[C@H]1C(=O)OC(CCCc1ccccc1)CCCc1cccnc1)c1ccccc1 (stereo partly shown) [Compound 18] | 5 | 7 | 7 | 0.056 | 9 | 8 | – |
| O=C(C(=O)N1CCCC[C@H]1C(=O)OC(CCCc1ccccc1)CCCc1ccccn1)c1ccccc1 (stereo partly shown) [Compound 19] | 6 | 5 | 8 | 0.05 | 10 | 10 | – |
| COc1cc(C(=O)C(=O)N2CCCC[C@H]2C(=O)OC(CCCc2ccccc2)CCCn2ccc3cccnc32)cc(OC)c1OC (stereo partly shown) [Compound 23] | – | 3.5 | 7 | – | 6 | 7 | 5 |
| O=C(C(=O)N1CCCC[C@H]1C(=O)OC(CCCc1ccccc1)CCCc1cccnc1)c1cccc(OCc2ccccc2)c1 (stereo partly shown) [Compound 27] | 6 | 5 | 4 | 0.015 | 6 | 10 | – |
| C=CCOc1cccc(C(=O)C(=O)N2CCCC[C@H]2C(=O)OC(CCCc2ccccc2)CCCc2cccnc2)c1 (stereo partly shown) [Compound 28] | 5 | 3 | 6 | 0.011 | 9 | 8 | – |
| COc1cc(C(=O)C(=O)N2CCCC[C@H]2C(=O)OC(CCCCc2ccccc2)CCCc2ccccc2)cc(OC)c1OC (stereo partly shown) [Compound 32] | 9 | 7.5 | 8 | 0.02 | > 10 | > 10 | – |
| COc1cc(C(=O)C(=O)N2CCCC[C@H]2C(=O)OC(CCCc2ccccc2)c2ccccc2CO)cc(OC)c1OC (stereo partly shown) [Compound 33] | 5 | 3 | 5 | 0.089 | 4.5 | 2 | – |
| COc1cc(C(=O)C(=O)N2CCCC[C@H]2C(=O)OC(CCCc2ccccc2)c2ccccc2O)cc(OC)c1OC (stereo partly shown) [Compound 38] | – | > 10 | 5 | – | > 10 | > 10 | > 10 |
| COc1cc(C(=O)C(=O)N2CCCC[C@H]2C(=O)OC(CCCc2ccccc2)c2cccnc2)cc(OC)c1OC (stereo partly shown) [Compound 39] | 6 | 2.5 | 5.5 | 0.01 | 5 | – | – |
| COc1cc(C(=O)C(=O)N2CCCC[C@H]2C(=O)OC(CCCCc2ccccc2)CCCc2cccs2)cc(OC)c1OC (stereo partly shown) [Compound 40] | > 10 | 10 | > 10 | 1.1 | > 10 | > 10 | – |
